In US20170107180A1, “GLYCOSIDASE INHIBITORS AND USES THEREOF” (Alectos Therapeutics Inc., priority 2012, published 2017) one finds Papp and Ki data, which are given here for 9 compounds.

Structures can show the parent of a compound that is named as a salt.

The Papp is the rate of passage across a membrane or cell layer, normalised by area and donor concentration. One may read the Ki as a dissociation constant, usually derived from enzyme kinetics or from competition with a known ligand.

System in the first data set: not listed separately
Kind of data set: Determination of apparent permeability (Papp), bi-directional transport in LLC-PK1 cells. It counts as in vitro ADME. The settings on record: pig, test compound 1 μM, t=3 h, average of A to B and B to A. As for the experimental part:
Bi-directional transport is evaluated in LLC-PK1 cells in order to determine apparent permeability (Papp). LLC-PK1 cells can form a tight monolayer and therefore can be used to assess vectorial transport of compounds from basolateral to apical (B→A) and from apical to basolateral (A→B).
To determine Papp, LLC-PK1 cells are cultured in 96-well transwell culture plates (Millipore). Solutions containing the test compounds (1 μM) are prepared in Hank's Balanced Salt Solution with 10 mM HEPES. Substrate solution (150 μL) is added to either the apical (A) or the basolateral (B) compartment of the culture plate, and buffer (150 μL) is added to the compartment opposite to that containing the compound. At t=3 h, 50 μL samples are removed from both sides of monolayers dosed with test compound and placed in 96 well plates, scintillant (200 μL) or internal standard (100 μL labetolol 1 μM) is added to the samples and concentration is determined by liquid scintillation counting in a MicroBeta Wallac Trilux scintillation counter (Perkin Elmer Life Sciences, Boston, Mass.) or by LCMS/MS (Applied Biosystems SCIEX API 5000 triple quadruple mass spectrometer). [^3H]Verapamil (1 μM) is used as the positive control. The experiment is performed in triplicate.
The apparent permeability, Papp, is calculated by the following formula for samples taken at t=3 h: […]
`CNC(=O)[C@@H]1[C@@H](O)[C@@H](O)[C@H](O)[C@@H](CO)N1CCCc1ccc(-c2ccccc2)cc1` [Example 3, (2S,3R,4S,5R,6R)-1-(3-([1,1′-biphenyl]-4-yl)propyl)-3,4,5-trihydroxy-6-(hydroxymethyl)-N-methylpiperidine-2-carboxamide]: the Papp at 3 h, 1 μM worked out at 3 ×10⁻⁶ cm/s.

Another data set deals with T1, human O-GlcNAcase (Homo sapiens, UniProt O60502).
T1 sequence (O60502 1-916): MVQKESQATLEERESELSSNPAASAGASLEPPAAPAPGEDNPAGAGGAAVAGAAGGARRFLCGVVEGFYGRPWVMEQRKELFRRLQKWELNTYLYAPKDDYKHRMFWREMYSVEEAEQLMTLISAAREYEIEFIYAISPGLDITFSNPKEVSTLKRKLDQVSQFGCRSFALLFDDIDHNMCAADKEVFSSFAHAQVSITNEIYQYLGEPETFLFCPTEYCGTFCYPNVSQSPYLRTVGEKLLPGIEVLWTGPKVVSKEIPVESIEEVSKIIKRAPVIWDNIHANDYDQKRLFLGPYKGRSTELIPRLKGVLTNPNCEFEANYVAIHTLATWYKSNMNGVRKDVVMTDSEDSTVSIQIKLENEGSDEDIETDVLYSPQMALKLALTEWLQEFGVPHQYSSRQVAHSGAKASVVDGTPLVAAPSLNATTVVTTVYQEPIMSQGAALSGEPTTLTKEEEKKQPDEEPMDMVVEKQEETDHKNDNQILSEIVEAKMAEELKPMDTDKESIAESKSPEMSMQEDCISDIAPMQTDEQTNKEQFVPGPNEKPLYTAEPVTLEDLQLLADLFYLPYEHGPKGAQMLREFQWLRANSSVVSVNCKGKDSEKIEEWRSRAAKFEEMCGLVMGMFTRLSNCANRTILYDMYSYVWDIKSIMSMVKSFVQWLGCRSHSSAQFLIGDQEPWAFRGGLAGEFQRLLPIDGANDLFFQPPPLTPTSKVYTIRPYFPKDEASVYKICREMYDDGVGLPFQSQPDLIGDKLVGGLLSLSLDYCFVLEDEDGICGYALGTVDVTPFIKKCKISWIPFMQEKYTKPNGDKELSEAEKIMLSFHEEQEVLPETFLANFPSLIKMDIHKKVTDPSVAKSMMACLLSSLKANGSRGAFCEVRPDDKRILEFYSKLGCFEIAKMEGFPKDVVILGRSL
Kind of data set: Determination of KI values for inhibition of O-GlcNAcase activity (fluorescence-based hOGA Ki). It counts as biochemical. Conditions: purified human O-GlcNAcase 0.7 nM, 2 mM 4-Methylumbelliferyl N-acetyl-β-D-glucosaminide, pH 7.0, Cheng-Prusoff. As to the method: Experimental procedure for kinetic analyses: Enzymatic reactions were carried out in a reaction containing 50 mM NaH2PO4, 100 mM NaCl and 0.1% BSA (pH 7.0) using 2 mM 4-Methylumbelliferyl N-acetyl-β-D-glucosaminide dihydrate (Sigma M2133) dissolved in ddH2O, as a substrate. The amount of purified human O-GlcNAcase enzyme used in the reaction was 0.7 nM. Test compound of varying concentrations was added to the enzyme prior to initiation of the reaction. The reaction was performed at room temperature in a 96-well plate and was initiated with the addition of substrate. The production of fluorescent product was measured every 60 sec for 45 min with a Tecan Infinite M200 plate-reader with excitation at 355 nm and emission detected at […], with 4-Methylumbelliferone (Sigma M1381) used to produce a standard curve. The slope of product production was determined for each concentration of compound tested and plotted, using standard curve fitting algorithms for sigmoidal dose response curves. The values for a four parameter logistic curve fit of the data were determined.
KI values were determined using the Cheng-Prusoff equation; the Km of O-GlcNAcase for substrate was 0.2 mM.
On to `CNC(=O)[C@@H]1[C@@H](O)[C@@H](O)[C@H](O)[C@@H](CO)N1CCCc1ccccc1` [Example 5, (2S,3R,4S,5R,6R)-3,4,5-trihydroxy-6-(hydroxymethyl)-N-methyl-1-(3-phenylpropyl)piperidine-2-carboxamide], for which the inhibition constant (Ki) turned out to be 1700 nM. On the same count and under the same terms, in the case of `CNC(=O)[C@@H]1[C@@H](O)[C@@H](O)[C@H](O)[C@@H](CO)N1CCCCC(C)C` [Example 8, (2S,3R,4S,5R,6R)-3,4,5-trihydroxy-6-(hydroxymethyl)-N-methyl-1-(5-methylhexyl)piperidine-2-carboxamide] it was 620 nM; in that of `CCNC(=O)[C@@H]1[C@@H](O)[C@@H](O)[C@H](O)[C@@H](CO)N1CCCc1ccccc1` [Example 6, (2S,3R,4S,5R,6R)-N-ethyl-3,4,5-trihydroxy-6-(hydroxymethyl)-1-(3-phenylpropyl)piperidine-2-carboxamide], 2500 nM; in that of `CNC(=O)[C@@H]1[C@@H](O)[C@@H](O)[C@H](O)[C@@H](CO)N1C/C=C/c1ccc(-c2ccccc2)cc1` [Example 2, (2S,3R,4S,5R,6R)-1-((E)-3-([1,1′-biphenyl]-4-yl)allyl)-3,4,5-trihydroxy-6-(hydroxymethyl)-N-methylpiperidine-2-carboxamide], 1810 nM. The compound `CNC(=O)[C@@H]1[C@@H](O)[C@@H](O)[C@H](O)[C@@H](CO)N1CCCc1ccc(-c2ccccc2)cc1` [Example 3, (2S,3R,4S,5R,6R)-1-(3-([1,1′-biphenyl]-4-yl)propyl)-3,4,5-trihydroxy-6-(hydroxymethyl)-N-methylpiperidine-2-carboxamide] registered an inhibition constant (Ki) of 9.4 nM. `CNC(=O)[C@@H]1[C@@H](O)[C@@H](O)[C@H](O)[C@@H](CO)N1C` [Example 1, (2S,3R,4S,5R,6R)-3,4,5-trihydroxy-6-(hydroxymethyl)-N,1-dimethylpiperidine-2-carboxamide hydrochloride] returned an inhibition constant Ki of 1470 nM. Same read-out and setting: in the case of `CNC(=O)[C@H]1N[C@H](CO)[C@@H](O)[C@H](O)[C@@H]1O` [(2S,3R,4S,5R,6R)-3,4,5-trihydroxy-6-(hydroxymethyl)-N-methylpiperidine-2-carboxamide (hydrochloride salt), reference compound] it was 165 nM; in that of `CCNC(=O)[C@H]1N[C@H](CO)[C@@H](O)[C@H](O)[C@@H]1O` [Example 4, (2S,3R,4S,5R,6R)-N-ethyl-3,4,5-trihydroxy-6-(hydroxymethyl)piperidine-2-carboxamide hydrochloride], 3300 nM; in that of `CNC(=O)[C@@H]1[C@@H](O)[C@@H](O)[C@H](O)[C@@H](CO)N1CCCCc1ccccc1` [Example 7, (2S,3R,4S,5R,6R)-3,4,5-trihydroxy-6-(hydroxymethyl)-N-methyl-1-(4-phenylbutyl)piperidine-2-carboxamide], 252 nM.
